Data published in patent US20240287138A1, “CYCLIC PEPTIDES FOR INHIBITING TNF RECEPTOR 1 ACTIVITY” (Merck Sharp & Dohme LLC, priority 2023, published 2024).
Bridge positions count the residues as written; N and C are the ends. Square brackets hold non-standard residues; d marks the D form. Peptide text beside a SMILES is read from it. Trp(βS-Me,7-OMe) = COc1cccc2c([C@H](C)[C@H](N)C(=O)O)c[nH]c12; Ala(1-bicyclo(1.1.1)pentyl) = N[C@@H](CC12CC(C1)C2)C(=O)O; Trp(7-Cl) = N[C@@H](Cc1c[nH]c2c(Cl)cccc12)C(=O)O; Phe(4-COOH) = N[C@@H](Cc1ccc(C(=O)O)cc1)C(=O)O; Trp(7-aza) = N[C@@H](Cc1c[nH]c2ncccc12)C(=O)O; Ala(4-thiazolyl) = N[C@@H](Cc1cscn1)C(=O)O; Pip(5R-OH) = O=C(O)[C@@H]1CC[C@@H](O)CN1; αMeW = C[C@](N)(Cc1c[nH]c2ccccc12)C(=O)O; hPhe = N[C@@H](CCc1ccccc1)C(=O)O; 4Pal = N[C@@H](Cc1ccncc1)C(=O)O; NMeE = CN[C@@H](CCC(=O)O)C(=O)O; NMeDab = CN[C@@H](CCN)C(=O)O; NEtAla = CCN[C@@H](C)C(=O)O; αMeS = C[C@](N)(CO)C(=O)O; NMeA = CN[C@@H](C)C(=O)O; Nle = CCCC[C@H](N)C(=O)O; Sar = CNCC(=O)O

Assays:
[1] = target: T1, human TNFR1 extracellular domain (ECD) protein (Homo sapiens, UniProt P19438); assay: SPR binding affinity to captured human TNFR1 ECD
T1 construct: HRV 3C protease cleavage site (C); 6His (C, cleaved yes); made in house; host or cells: Sf21 insect cells (baculovirus), secreted
T1 sequence (P19438 30-211): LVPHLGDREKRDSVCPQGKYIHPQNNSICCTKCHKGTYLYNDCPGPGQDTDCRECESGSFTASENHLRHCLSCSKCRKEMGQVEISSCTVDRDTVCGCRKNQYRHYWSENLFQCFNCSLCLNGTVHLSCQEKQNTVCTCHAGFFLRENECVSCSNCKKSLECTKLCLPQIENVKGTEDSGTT
Method in brief: (§1)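 SPR kinetics: peptides over captured avi-biotinylated receptor ECDs, TNFR1 for affinity, TNFR2 run in parallel for off-target binding. Running buffer HEPES pH 7.4 with 150 mM NaCl, 3 mM EDTA, 0.05% P20, 2% DMSO; surface regenerated between analytes. Affinity derived from kon/koff.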

human TNFR2 ECD protein = target: T2, human TNFR2 ECD protein (Homo sapiens, UniProt P20333); assay: SPR off-target binding (selectivity) to human TNFR2 ECD
T2 construct: HRV 3C protease cleavage site (C); 6His (C, cleaved yes); made in house; host or cells: Sf21 insect cells (baculovirus), secreted
T2 sequence (P20333 23-257): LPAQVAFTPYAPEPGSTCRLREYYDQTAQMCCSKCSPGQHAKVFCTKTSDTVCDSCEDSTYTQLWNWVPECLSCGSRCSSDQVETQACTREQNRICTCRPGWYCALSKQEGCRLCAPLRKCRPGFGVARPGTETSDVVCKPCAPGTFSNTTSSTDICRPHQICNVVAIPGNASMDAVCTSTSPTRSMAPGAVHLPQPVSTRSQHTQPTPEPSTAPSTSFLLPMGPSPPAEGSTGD
Method in brief: as §1

[2] = target: T3, human soluble TNFR1 (sTNFR1) (Homo sapiens, UniProt P19438); assay: Human sTNFR1-peptide displacement assay (LanthaScreen Eu TR-FRET binding assay)
T3 construct: made in house; host or cells: Sf21 (baculovirus)
T3 sequence (P19438 with tags, fused parts or gaps): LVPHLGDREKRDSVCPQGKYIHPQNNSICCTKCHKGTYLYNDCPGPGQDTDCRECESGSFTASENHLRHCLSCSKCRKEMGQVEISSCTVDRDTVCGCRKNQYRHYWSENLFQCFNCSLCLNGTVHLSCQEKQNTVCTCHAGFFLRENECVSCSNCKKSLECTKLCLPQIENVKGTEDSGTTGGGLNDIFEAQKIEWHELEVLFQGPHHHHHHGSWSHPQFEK
Method in brief: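 Readout is the 665/615 nm TR-FRET ratio (Eu anti-His donor, streptavidin-Alexa647 acceptor), normalized to DMSO and saturating displacer, fit by Morrison-based five-parameter logistic for Kd^app. His-tagged sTNFR1 (1-211) prebound to 100 nM biotinylated peptide SEQ ID NO.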

Row | SMILES | Kd [1] [nM] | Kd (human TNFR2 ECD protein) [nM] | IC50 [2] [nM] | Kd [2] [nM]
1 | C[C@H]1C(=O)N[C@@H](CC(N)=O)C(=O)N[C@@H](Cc2ccncc2)C(=O)N[C@@H](Cc2c[nH]c3ccccc23)C(=O)N[C@@](C)(CO)C(=O)N[C@@H](Cc2ccc(C(=O)O)cc2)C(=O)N[C@@H](CCCNC(=N)N)C(=O)N(C)CC(=O)N[C@@H](Cc2c[nH]c3ccccc23)C(=O)N[C@H](C(N)=O)CSCC(=O)N[C@@H](CCc2ccccc2)C(=O)N[C@@H](Cc2ccc(O)cc2)C(=O)N[C@@H](CO)C(=O)N[C@@H](Cc2c[nH]c3ccccc23)C(=O)N1C [SEQ ID NO. 260] ({CH2CO}-[hPhe]YSW[NMeA]N[4Pal]W[αMeS][Phe(4-COOH)]R[Sar]WC-NH2; thioether N-14) | 6 | > 1000 | 10.2 | –
2 | CCCC[C@@H]1NC(=O)CSC[C@@H](C(N)=O)NC(=O)[C@H]([C@@H](C)c2c[nH]c3c(OC)cccc23)NC(=O)CN(C)C(=O)[C@H](Cc2ccc(O)cc2)NC(=O)[C@H](Cc2ccc(C(=O)O)cc2)NC(=O)[C@](C)(CO)NC(=O)[C@H](Cc2c[nH]c3c(Cl)cccc23)NC(=O)[C@H](Cc2ccncc2)NC(=O)[C@H](CC(N)=O)NC(=O)[C@H](CCC(=O)O)N(C)C(=O)[C@H](Cc2c[nH]c3ncccc23)NC(=O)[C@H](Cc2cscn2)NC(=O)[C@H](Cc2ccncc2)NC1=O [SEQ ID NO. 253] ({CH2CO}-[Nle][4Pal][Ala(4-thiazolyl)][Trp(7-aza)][NMeE]N[4Pal][Trp(7-Cl)][αMeS][Phe(4-COOH)]Y[Sar][Trp(βS-Me,7-OMe)]C-NH2; thioether N-14) | 1.09 | > 1000 | 0.77 | 1.02
3 | CCCC[C@@H]1NC(=O)CSC[C@@H](C(N)=O)NC(=O)[C@](C)(Cc2c[nH]c3ccccc23)NC(=O)CN(C)C(=O)[C@H](Cc2ccc(O)cc2)NC(=O)[C@H](Cc2ccc(C(=O)O)cc2)NC(=O)[C@](C)(CO)NC(=O)[C@H](Cc2c[nH]c3c(Cl)cccc23)NC(=O)[C@H](Cc2ccncc2)NC(=O)[C@H](CC(N)=O)NC(=O)[C@H](CCC(=O)O)N(C)C(=O)[C@H](Cc2c[nH]c3ncccc23)NC(=O)[C@H](CCN)N(C)C(=O)[C@H](Cc2ccncc2)NC1=O [SEQ ID NO. 231] ({CH2CO}-[Nle][4Pal][NMeDab][Trp(7-aza)][NMeE]N[4Pal][Trp(7-Cl)][αMeS][Phe(4-COOH)]Y[Sar][αMeW]C-NH2; thioether N-14) | 1.9 | > 1000 | 2.63 | –
4 | CCN1C(=O)[C@H](Cc2c[nH]c3c(Cl)cccc23)NC(=O)[C@H](CO)NC(=O)[C@H](Cc2ccncc2)NC(=O)[C@H](CC23CC(C2)C3)NC(=O)CSC[C@@H](C(N)=O)NC(=O)[C@H](Cc2c[nH]c3ncccc23)NC(=O)CN(C)C(=O)[C@H](Cc2ccc(O)cc2)NC(=O)[C@H](Cc2ccc(C(=O)O)cc2)NC(=O)[C@](C)(CO)NC(=O)[C@H](Cc2c[nH]c3ncccc23)NC(=O)[C@H](Cc2ccc(C(=O)O)cc2)NC(=O)[C@H](CC(N)=O)NC(=O)[C@@H]1C [SEQ ID NO. 232] ({CH2CO}-[Ala(1-bicyclo(1.1.1)pentyl)][4Pal]S[Trp(7-Cl)][NEtAla]N[Phe(4-COOH)][Trp(7-aza)][αMeS][Phe(4-COOH)]Y[Sar][Trp(7-aza)]C-NH2; thioether N-14) | 0.7 | > 1000 | 3.19 | 2.15
5 | CCCC[C@@H]1NC(=O)CSC[C@@H](C(N)=O)NC(=O)[C@H]([C@@H](C)c2c[nH]c3c(OC)cccc23)NC(=O)CN(C)C(=O)[C@H](Cc2ccc(O)cc2)NC(=O)[C@H](Cc2ccc(C(=O)O)cc2)NC(=O)[C@](C)(CO)NC(=O)[C@H](Cc2c[nH]c3c(Cl)cccc23)NC(=O)[C@H](Cc2ccncc2)NC(=O)[C@H](CC(N)=O)NC(=O)[C@H]2CCCN2C(=O)[C@H](Cc2c[nH]c3ccccc23)NC(=O)[C@@H]2CC[C@@H](O)CN2C(=O)[C@H](Cc2ccncc2)NC1=O [SEQ ID NO. 203] ({CH2CO}-[Nle][4Pal][Pip(5R-OH)]W[dP]N[4Pal][Trp(7-Cl)][αMeS][Phe(4-COOH)]Y[Sar][Trp(βS-Me,7-OMe)]C-NH2; thioether N-14) | 0.1 | > 1000 | – | 0.31
